How the values were obtained:
[1] = test system: types of fish common in aquariums (acute toxicity of ammonia); assay: Behavior of aquarium fish in water with 1000 μmol/l of total ammonia, with and without preparation; assay type: in vivo; conditions: for reduction of the acute toxicity of ammonia in water animals, in particular ornamental fish: in vivo
From the text: In aquariums holding 50 liters, the aquarium water was set to the following values:
Metered addition of a NH4Cl solution set to pH 8.2 predetermined a total ammonia concentration of 1000 μmol/l.
The aquariums were stocked with types of fish common in aquariums: • Xiphosphorus maculatus • Brachydanio rerio • Paracheirodon innesi • Rasbora heteromorpha • Colisa lalia • Papiliochromis ramirezi • Melanochromis splendida • Megalamphodus sweglesi • Corydoras spec
Only about 30% of the test fish behaved normal. […] The behavioral pattern observed persisted over 48-72 h, i.e. 2-3 days.
In the following tables, the average values of the behavior of all types of fish are represented averaged depending on the time and dose of glyoxal.2NaHSO3: (Comparison: control with 1000 μmol/l of total ammonia without treatment)

[2] = test system: fish and other water organisms; assay: Compatibility of the adduct alone; assay type: in vivo
Method: The adduct alone is very well compatible for fish and other water organisms up to high concentrations of 140 mg/l.

[3] = Stability of liquid product formulations; assay type: physicochemical; conditions: extended pH range between pH 3 and 9
[4] = Chemical changes in the keeping water (pH, carbonate hardness); assay type: physicochemical
From the text: The positive effect may originate from the preparation itself, wherein, for example glyoxal.2NaHSO3 acts as a protecting agent in the gill area. The second possibility is an indirect effect by influencing the water chemistry, which again results in a shift of the NH3/NH4^+ equilibrium. Glyoxal-2NaHSO3 causes two different chemical changes in the keeping water:
1. pH reduction by up to 0.5 units, which persists considerably longer than with state of the art preparations and products, for example a reduction by 0.3 pH units up to 72 hours following the dose.
2. […] This surprising chemical behavior, too, is not found with state of the art products or preparations.

[5] = NH3 concentration ranges common in keeping water; cited from earlier work

## O=S(=O)([O-])C(O)CCCC(O)S(=O)(=O)[O-].[Na+].[Na+] (centres unmarked) [NaHSO3 bisadduct of glutardialdehyde]
[1]
  reduction of the acute toxicity of ammonia in water animals, in particular ornamental fish: especially effective

## O=S(=O)([O-])C(O)CC(O)S(=O)(=O)[O-].[Na+].[Na+] (centres unmarked) [NaHSO3 bisadduct of malondialdehyde]
[1]
  reduction of the acute toxicity of ammonia in water animals, in particular ornamental fish: show the desired reduction of the acute toxicity of ammonia

## O=S(=O)([O-])C(O)CCC(O)S(=O)(=O)[O-].[Na+].[Na+] (centres unmarked) [NaHSO3 bisadduct of succindialdehyde]
[1]
  reduction of the acute toxicity of ammonia in water animals, in particular ornamental fish: show the desired reduction of the acute toxicity of ammonia

## O=S(=O)([O-])C(O)CO.[Na+] (centres unmarked) [NaHSO3 monoadduct of glycolaldehyde]
[1]
  reduction of the acute toxicity of ammonia in water animals, in particular ornamental fish: show the desired reduction of the acute toxicity of ammonia

## O=S(=O)([O-])C(O)C(O)S(=O)(=O)[O-].[Na+].[Na+] (centres unmarked) [glyoxal•2NaHSO3, NaHSO3 bisadduct of glyoxal]
[1]; 1000 μmol/l of total ammonia, only about 30% normal without preparation
  behavior of the test fish following addition of the preparation: the majority of the test fish behaved normal and showed no signs of damage by ammonia
[1]; Table A, 35 mg/l single dose, 0 hrs (before dose), 1000 μmol/l total ammonia
  Normal behavior show % of the test fish: 89%
[1]; Table A, 35 mg/l single dose, 2 hrs
  Normal behavior show % of the test fish: 67%
[1]; Table A, 35 mg/l single dose, 5 hrs
  Normal behavior show % of the test fish: 67%
[1]; Table A, 35 mg/l single dose, 9 hrs
  Normal behavior show % of the test fish: 67%
[1]; Table A, 35 mg/l single dose, 23 hrs
  Normal behavior show % of the test fish: 56%
[1]; Table A, 35 mg/l single dose, 29 hrs
  Normal behavior show % of the test fish: 67%
[1]; Table A, 35 mg/l single dose, 46 hrs
  Normal behavior show % of the test fish: 67%
[1]; Table A, 35 mg/l single dose, 54 hrs
  Normal behavior show % of the test fish: 56%
[1]; Table A, 35 mg/l single dose, 72 hrs
  Normal behavior show % of the test fish: 44%
[1]; Table B, 130 mg/l single dose, 0 hrs (before dose), 1000 μmol/l total ammonia
  Normal behavior show % of the test fish: 100%
[1]; Table B, 130 mg/l single dose, 2 hrs
  Normal behavior show % of the test fish: 78%
[1]; Table B, 130 mg/l single dose, 4 hrs
  Normal behavior show % of the test fish: 78%
[1]; Table B, 130 mg/l single dose, 8 hrs
  Normal behavior show % of the test fish: 78%
[1]; Table B, 130 mg/l single dose, 24 hrs
  Normal behavior show % of the test fish: 78%
[1]; Table B, 130 mg/l single dose, 48 hrs
  Normal behavior show % of the test fish: 100%
[1]; Table C, three-time dose 35 mg/l every 72 hours, 0 hrs (before doses)
  Normal behavior show % of the test fish: 100%
[1]; Table C, three-time dose 35 mg/l every 72 hours, 2 hrs
  Normal behavior show % of the test fish: 78%
[1]; Table C, three-time dose 35 mg/l every 72 hours, 4 hrs
  Normal behavior show % of the test fish: 78%
[1]; Table C, three-time dose 35 mg/l every 72 hours, 5 hrs
  Normal behavior show % of the test fish: 78%
[1]; Table C, three-time dose 35 mg/l every 72 hours, 24 hrs
  Normal behavior show % of the test fish: 67%
[1]; Table C, three-time dose 35 mg/l every 72 hours, 72 hrs (before 2nd dose)
  Normal behavior show % of the test fish: 78%
[1]; Table C, three-time dose 35 mg/l every 72 hours, 74 hrs
  Normal behavior show % of the test fish: 67%
[1]; Table C, three-time dose 35 mg/l every 72 hours, 96 hrs
  Normal behavior show % of the test fish: 89%
[1]; Table C, three-time dose 35 mg/l every 72 hours, 5 days after the 3rd dose (i.e. 11 days)
  Normal behavior show % of the test fish: 89%
[1]; Table C, three-time dose 35 mg/l every 72 hours, 120 hrs
  Normal behavior show % of the test fish: 89%
[1]; Table C, three-time dose 35 mg/l every 72 hours, 144 hrs (before 3rd dose)
  Normal behavior show % of the test fish: 89%
[1]; Table C, three-time dose 35 mg/l every 72 hours, 145 hrs
  Normal behavior show % of the test fish: 100%
[1]; Table C, three-time dose 35 mg/l every 72 hours, 168 hrs
  Normal behavior show % of the test fish: 89%
[1]; Table C, three-time dose 35 mg/l every 72 hours, 192 hrs
  Normal behavior show % of the test fish: 100%
[1]; Table D comparison, glyoxal•2NaHSO3 35 mg/l, product doses not given, 0 hrs (before dose)
  Normal behavior show % of the test fish: 89%
[1]; Table D comparison, glyoxal•2NaHSO3 35 mg/l, product doses not given, 2 hrs
  Normal behavior show % of the test fish: 67%
[1]; Table D comparison, glyoxal•2NaHSO3 35 mg/l, product doses not given, 5 hrs
  Normal behavior show % of the test fish: 67%
[1]; Table D comparison, glyoxal•2NaHSO3 35 mg/l, product doses not given, 8.5 hrs
  Normal behavior show % of the test fish: 67%
[1]; Table D comparison, glyoxal•2NaHSO3 35 mg/l, product doses not given, 22.5 hrs
  Normal behavior show % of the test fish: 56%
[1]; Table D comparison, glyoxal•2NaHSO3 35 mg/l, product doses not given, 29 hrs
  Normal behavior show % of the test fish: 67%
[1]; Table D comparison, glyoxal•2NaHSO3 35 mg/l, product doses not given, 46 hrs
  Normal behavior show % of the test fish: 67%
[1]; Table D comparison, glyoxal•2NaHSO3 35 mg/l, product doses not given, 54 hrs
  Normal behavior show % of the test fish: 56%
[1]; Table D comparison, glyoxal•2NaHSO3 35 mg/l, product doses not given, 72 hrs
  Normal behavior show % of the test fish: 44%
[1]; during the first 48 hours, 35 mg/l and 130 mg/l
  percentage of test fish with normal behavior versus control without treatment: significantly higher percentage of the test fish shows normal behavior than in the control test
[1]
  reduction of the acute toxicity of ammonia in water animals, in particular ornamental fish: especially effective
[1]; on addition of 5-140 mg/l, preferably 10-50 mg/l
  acute toxicity of ammonia to fish: clearly reduced
[1]; single dose, 1000 μmol/l of total ammonia
  time over which the behavioral pattern observed persisted: 48 to 72 h
[2]
  concentration up to which the adduct alone is very well compatible for fish and other water organisms: ≤ 140 µg/mL
[3]
  stability of the liquid product formulations: good stability
[4]
  time after which the carbonate hardness reduction sets in: about 24 hours
  time the carbonate hardness reduction lasts: up to 72 hours
[4]; keeping water
  Reduction of the carbonate hardness: 0.5-0.60 dH
[4]; maximum
  pH reduction in the keeping water: up to 0.5 units
[4]; up to 72 hours following the dose
  pH reduction in the keeping water: 0.3 pH units

## O=S(=O)([O-])CO.[Na+] [sodium hydroxymethanesulfonate]
[5]
  reduction in the ammonia concentration: Neither a reduction in the ammonia concentration
  reduction of the NH3 toxicity: nor a, however disposed, reduction of the NH3 toxicity could be observed
